Experimental data: US6900194B1, “Use of substituted 4-biarylbutyric and 5-biarylpentanoic acid derivatives as matrix metalloprotease inhibitors for the treatment of respiratory diseases” (Bayer Aktiengesellschaft, priority 1998, dated 2005)

Biological target: T1, MMP-7 (Matrilysin) (Homo sapiens, UniProt P09237)
T1 construct: Catalytic domain expressed in E. coli using the pET 14 vector, provided by Dr Steve Shapiro; host or cells: E. coli
T1 sequence (P09237 95-267): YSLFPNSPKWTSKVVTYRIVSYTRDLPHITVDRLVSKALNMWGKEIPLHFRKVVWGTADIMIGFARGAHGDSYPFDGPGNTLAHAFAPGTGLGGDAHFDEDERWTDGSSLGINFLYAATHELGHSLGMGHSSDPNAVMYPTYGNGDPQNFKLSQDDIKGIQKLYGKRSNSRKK
Test: P218 quenched fluorescence assay, MMP-7
Type: biochemical
Source text: P218 Quenched Fluorescence Assay for MMP Inhibition:
This assay is adapted from the one described by Knight et al., FEBS Letters, 296, 263-266 (1992) for MMP-3 and a related substrate. The rate of hydrolysis of the synthetic substrate H-MCA-Pro-Lys-Pro-Leu-Ala-Leu-DPA-Ala-Arg-NH2 (P218) by the respective MMPs is monitored fluorometrically, using an excitation wavelength of 340 nm and an emission wavelength of 395 nm, in the presence or absence of the test compounds. The substrate is made up initially in 100% DMSO to a concentration of 1×10^−2 M, then diluted in assay buffer to a final concentration of 20 μM. […] The total assay volume in a 96 well microtitre plate is 150 μl, Cleavage of the substrate between the Leu-Ala residues allows the fluorescence of the MCA group to be detected on a fluorometer (Cytofluor II) following excitation at 340 nm and emission at 395 nm. Change in fluorescence is continually monitored for a 40 min period.
The Ki's are calculated using the method described by Williams and Morrison, Methods in Enzymology, 63, 437-467 (1979) to measure Ki apparent for tight binding inhibitors, and is summarised as follows: [I]0/(1−vi/v0)=Ki apparent ×vi/v0+[E]0 [I]0 and [E]0 are inhibitor and enzyme concentrations, and vi/v0 are reaction velocities with/without inhibitor. […]
IC50's are determined at each enzyme concentration using Xlfit software. […]

| Structure (SMILES) | Ki (read-out: Potency Ki vs. MMP-7) | inhibition at 0.03 µM (at 30 nM, read-out: % inh. of MMP-7) |
| --- | --- | --- |
| O=C(CC(CCN1C(=O)c2ccccc2C1=O)C(=O)O)c1ccc(-c2ccc(Cl)cc2)cc1 (single isomer, unassigned; (+)) [Example 4, (+)-4-(4′-Chloro[1,1′-biphenyl]4-yl)-2-[2-(1,3-dioxo-1,3-dihydro-2H-isoindol-2-yl)ethyl]-4-oxobutanoic acid] | > 3 µM | – |
| CCOc1ccc(-c2ccc(C(=O)CC(CCN3C(=O)c4ccccc4C3=O)C(=O)O)cc2)cc1 (single isomer, unassigned; (+)) [Example 2, (+)-2-[2-(1,3-Dioxo-1,3-dihydro-2H-isoindol-2-yl)ethyl]-4-(4′-ethoxy[1,1′-biphenyl]-4-yl)-4-oxobutanoic acid] | – | 38% |
